According to patent US7781417B2, “Cyclodextrin dimers and derivatives thereof, methods for preparing them and their use, in particular, for the solubilizing pharmacologically active substances” (Centre National de la Recherche Scientifique, priority 2003, dated 2010):
Several values for one entry are separate records, joined by “and”; a condition that tells them apart may be missing. Identical values can stand only once. Like-named read-outs stand apart in the source and are kept apart here.

What was measured:
[1] = target: mannose-specific lectin concanavalin A (ConA) (Canavalia ensiformis, UniProt P02866); assay: ELLA (Enzyme-Linked Lectin Assay): inhibition of the combination of yeast mannan and horse-radish peroxidase-labelled ConA; format: binding; conditions: for Relative affinity / Relative molar affinity: relative to Me-α-D-Glcp = 1
Description: The affinity of the ureido-, thioureido-, ureidocysteaminyl- and thioureidocysteaminyl-cyclodextrin dimers of the invention which incorporate glucide substituents for specific membrane lectins in vitro is evaluated according to the ELLA (“Enzyme-Linked Lectin Assay”) protocol. Numerous examples of application of this protocol can be found in the article by J. J. Lundquist and E. J. Toon in Chem. Rev. 2002, 102, pp. 555-578. This technique measures the ability of a soluble mono- or oligosaccharide ligand to inhibit the association between a complementary lectin and another reference ligand bound to a plastic support microplate. Thus, the ureido-, thioureido-, ureidocysteaminyl- and thioureidocysteaminyl-cyclodextrin dimers carrying α-D-mannopyranosyl substituents are recognized by concanavalin A or by the mannose-specific lectin of the macrophages, the derivatives with β-lactosyl substituents are recognized by the lactose-specific lectin of Arachys hypogaea or hepatocytes, and the derivatives comprising the tetrasaccharide sialyl-Lewis X substituent are recognized by the selectins of the endothelium involved in the inflammation method.
The affinity of compounds no. 5 to 8 for the mannose-specific lectin concanavalin A (ConA) was evaluated according to the test ELLA protocol. The concentration of compounds no. […] The IC50 values are inversely proportional to the respective affinities.
The microtitration plate cells (Nunc-Immuno™ plates MaxiSorp™) are charged with 100 μl of a yeast mannan stock solution (Sigma, […]) in a saline phosphate buffer solution (PBS; pH 7.3 containing Ca^2+ 0.1 mM and Mn^2+ 0.1 mM) overnight at ambient temperature. The cells are washed (3×300 μl) with a buffer solution containing 0.05% (v/v) Tween 20 (PBTS). This washing protocol is repeated after each incubation during the test. A bovine serum albumin solution (BSA, 1%) in PBS (150 μg/cell) is then added to the cells, followed by incubation for 1 h at 37° C. and then washing.
To determine the optimum lectin concentration for the inhibition studies, 100 μl of a series of Con A solutions labelled with 10^−1 to 10^−5 mg.ml^−1 horse-radish peroxidase in PBS is added to the cells charged with the mannan, followed by treating as indicated above. After incubation at 37° C. for 1 hour, the plates are washed (PBST) and a solution (50 μl) of the diammonium salt of 2,2′-azinobis(3-ethylbenzothiazoline-6-sulphonic) acid (ABTS, 1 mg in 4 ml) in citrate buffer is added (0.2 M; pH 4.0 with 0.015% of oxygenated water). The reaction is stopped after 20 minutes by adding 50 μl/cell sulphuric acid 1 M and the absorbances are measured at 415 nm using an ELISA reader. The sample cells contain the citrate-phosphate buffer. The concentration of lectin marked with peroxidase giving an absorbance value between 0.8 and 1.0 (typically between 10^−2 and 10^−3 mg/ml^−1) was used in the inhibition assays.
For inhibition assays, stock solutions of compounds no. 5 to 8 were used at a concentration of 5 to 7 mg/ml^−1 in PBS. In a series of experiments, ConA marked with horse-radish peroxidase of suitable concentration as indicated above (60 μl/cell) is added to the solutions of each compound (60 μl/cell) in PBS, double-diluted in sequence, in a Nunclon™(Delta) microtitration plate which is incubated at 37° C. for 1 hour. The solutions (100 μl/cell) are then transferred to a microtitration plate charged with mannan and treated as indicated above, then being incubated at 37° C. for 1 hour. The cells are washed (PBST) and ABTS solution added (50 μl/cell). After 20 minutes, the reaction is stopped (sulphuric acid) and the absorbances are measured.
The inhibition percentage is calculated by the formula: […]

[2] = inclusion of Taxotere into the cyclodextrin dimer: solubility of Taxotere in sterile water; format: physicochemical
Description: (§1) Taxotere in the pure state is used to start with and 8.3 mg (9.7 μmol) of this product is dispersed in 1 ml of a solution containing 10 mmol.l^−1 of compound no. 3 in sterile water, then the obtained suspension is stirred at 70° C. until a clear solution is obtained which signals the complexation of the Taxotere.
as §1, with “6.6” for “8.3”, “(7.7” for “(9.7”, “8 mmol/l^−1” for “10 mmol.l^−1”, “6” for “3”
as §1, with “5.8” for “8.3”, “([…]” for “(9.7”, “7 mmol/l^−1” for “10 mmol.l^−1”, “6” for “3”

[3] = solubility in water of the cyclodextrin (dimer) derivative; format: physicochemical
[4] = inhibition of ConA-HRP binding to yeast mannan fixed to microtitration plate, average of three independent experiments, read-out: IC50

Compound	Relative affinity [1]	Relative molar affinity [1]	IC50 [1, 4] [µM]	further results
CO[C@H]1O[C@H](CO)[C@@H](O)[C@H](O)[C@H]1O [Me-α-D-Glcp, methyl-α-D-glucopyranoside, reference compound]	1	1	–	IC50 [1]: 865 µM
bis[2-[N′-(6^I-deoxycyclomaltoheptaos-6^I-yl)thioureido]ethyl] 2-[N′-[tris(2,3,4,6-tetra-O-acetyl-α-D-mannopyranosyloxy-methyl)methyl]thioureido]lethylamine [compound no. 6]	0.76	0.38	1130	stability of the Taxotere complex in solution once formed [2]: remains in solution at ambient temperature
bis[2-[N′-(6^I-deoxycyclomaltoheptaos-6^I-yl)thioureido]ethyl] 2-[N′-[2-[bis[2-[N′-[tris(α-D-mannopyranosyloxymethyl) methyl]thioureido]ethyl] amino]ethyl]thioureido]ethylamine [compound no. 8]	17.7	2.9	49	times more effectively recognized by ConA compared with the monovalent cyclodextrin dimer derivative, compound no. 5 ([1]; versus compound no. 5): up to 25 times
bis[2-[N′-(6^I-deoxycyclomaltoheptaos-6^I-yl)thioureido]ethyl] 2-[N′-[2-[bis[2-[N′-(α-D-mannopyranosyl)thioureido]ethyl] amino]ethyl]thioureido]ethyl amine [compound no. 7]	3.3	1.1	265	–
OC[C@H]1O[C@@H]2O[C@H]3[C@H](O)[C@@H](O)[C@@H](O[C@H]4[C@H](O)[C@@H](O)[C@@H](O[C@H]5[C@H](O)[C@@H](O)[C@@H](O[C@H]6[C@H](O)[C@@H](O)[C@@H](O[C@H]7[C@H](O)[C@@H](O)[C@@H](O[C@H]8[C@H](O)[C@@H](O)[C@@H](O[C@H]1[C@H](O)[C@H]2O)O[C@@H]8CO)O[C@@H]7CO)O[C@@H]6CO)O[C@@H]5CNC(=S)NCCN(CCNC(=S)NC[C@H]1O[C@@H]2O[C@H]5[C@H](O)[C@@H](O)[C@@H](O[C@H]6[C@H](O)[C@@H](O)[C@@H](O[C@H]7[C@H](O)[C@@H](O)[C@@H](O[C@H]8[C@H](O)[C@@H](O)[C@@H](O[C@H]9[C@H](O)[C@@H](O)[C@@H](O[C@H]%10[C@H](O)[C@@H](O)[C@@H](O[C@H]1[C@H](O)[C@H]2O)O[C@@H]%10CO)O[C@@H]9CO)O[C@@H]8CO)O[C@@H]7CO)O[C@@H]6CO)O[C@@H]5CO)CCNC(=S)Nc1ccccc1)O[C@@H]4CO)O[C@@H]3CO [compound no. 4, bis[2-[N′-(6^I-deoxycyclomaltoheptaos-6^I-yl)thioureido]ethyl] 2-(N′-phenylthioureido)ethylamine]	–	–	–	solubility in water [3]: 115 g·L^−1 and 62 mmol·L^−1
bis[2-[N′-(6^I-deoxycyclomaltoheptaos-6^I-yl)thioureido]ethyl] 2-(N′-methylthioureido)ethylamine [compound no. 3]	–	–	–	solubility of the Taxotere in a solution of the compound ([2]; 10 mmol.l^−1 of compound in sterile water, stirred at 70° C. until clear): 8.3 g/L; stability of the Taxotere complex in solution once formed ([2]; ambient temperature, after complexation at 70° C.): remains in solution at ambient temperature
bis[2-[N′-(6^I-deoxycyclomaltoheptaos-6^I-yl)thioureido]ethyl] 2- [N′-(α-D-mannopyranosyl)thioureido]ethylamine [compound no. 5]	0.67	0.67	1290	–
